Measurements reported in PubChem BioAssay (NCI).
Several values for one entry are separate records, joined by “and”; a condition that tells them apart may be missing. Equal values may be shown once.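 All cell lines were grown in 96-well plates and treated with compound for 48 hours. At the GI50, growth is halved. Definition used: TGI = concentration required for complete inhibition of growth.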 Where a SMILES comes first, the peptide text is derived from it. [ ]: non-standard residue; d: D form. The star is where a group is joined. NMeF = CN[CH](Cc1ccccc1)C(=O)O; NMeV = CN[CH](C(=O)O)C(C)C; Boc = CC(C)(C)OC(=O)*

Columns and labels:
Experiment in all cases: inhibition of tumour cell growth, NCI panel, 48 h
[1] = test system: 786-0 renal
[2] = test system: A498 renal
[3] = test system: ACHN renal
[4] = test system: HCC-2998 colon
[5] = test system: NCI-H460 lung
[6] = test system: NCI-H522 lung
[7] = test system: OVCAR-5 ovarian
[8] = test system: SK-OV-3 ovarian
[9] = test system: UACC-257 melanoma

Structure (SMILES)	GI50 [1]	TGI [1]	GI50 [2]	TGI [2]	GI50 [3]	TGI [3]	GI50 [4]	TGI [4]	GI50 [5]	TGI [5]	GI50 [6]	TGI [6]	GI50 [7]	TGI [7]	GI50 [8]	TGI [8]	GI50 [9]	TGI [9]
CC(C)n1nc(-c2cc3cc(O)ccc3[nH]2)c2c(N)ncnc21	0.294 µM	2.88 µM	0.0194 µM	0.123 µM	0.224 µM	5.18 µM	0.572 µM	17.8 µM	0.127 µM	9.38 µM	0.0974 µM	2.02 µM	0.244 µM	8.98 µM	0.14 µM	0.754 µM	0.161 µM	1.7 µM
CC(C)(C)c1cc(Br)c(O)c(CN(Cc2cc(C(C)(C)C)cc(Br)c2O)C2CCCCC2)c1		27.7 µM		26.3 µM		28.1 µM						25.1 µM		29.1 µM		29.2 µM		16.5 µM
Cc1cn(C2CC(N(O)Cc3ccccc3)C(CO[Si](C)(C)C(C)(C)C)O2)c(=O)[nH]c1=O (stereo not drawn)		30.1 µM and 31.1 µM		48.7 µM and 26.8 µM		98.1 µM and 31.4 µM		41.7 µM and 34.3 µM		33.3 µM and 32.2 µM		32.2 µM		42.8 µM and 32.7 µM	62 µM and 16.5 µM	> 100 µM and 30.1 µM		67.5 µM and 30 µM
O=C(NC1=CC(=O)c2ccccc2C1=O)c1ccccc1	3.01 µM	17.2 µM	4.46 µM	17.5 µM	1.01 µM	2.27 µM	1.27 µM	14.3 µM	0.643 µM	13.1 µM	0.702 µM	2.76 µM	1.18 µM	15.5 µM	3.06 µM	14.3 µM	1.22 µM	2.57 µM
COC(C(O)CO)C(O)C(O)C(=O)NNc1ccccc1 (stereo not drawn)		> 100 µM		> 100 µM		> 100 µM		> 100 µM		> 100 µM		> 100 µM		> 100 µM		> 100 µM		> 100 µM
CN1C(=O)c2cccc3cc([N+](=O)[O-])cc(c23)C1=O		> 10 µM				> 10 µM		> 10 µM				> 10 µM		> 10 µM		> 10 µM		> 10 µM
O=C(N/N=C/c1ccc(Cl)cc1)c1ccc(C(F)(F)F)nc1Nc1cccc(C(F)(F)F)c1	0.818 µM	3.63 µM	2.24 µM	8.69 µM	2.73 µM	8.77 µM	4.3 µM	17.3 µM	1.66 µM	6.6 µM	2.8 µM	10.7 µM	3.2 µM	13.7 µM	1.85 µM	7.54 µM	2.43 µM	8.99 µM
COC1=C(C)C(=O)c2c(c(COC(N)=O)c3n2CC2C3N2C)C1=O (stereo not drawn)		0.102 µM		0.206 µM		< 0.0139 µM						0.0304 µM		0.324 µM		0.167 µM		0.0641 µM
CCOc1ccccc1NC(=O)CC(C(=O)OC)C(=O)C(=O)OC (stereo not drawn)		> 100 µM		> 100 µM		> 100 µM		> 100 µM		> 100 µM		> 100 µM		> 100 µM		> 100 µM		> 100 µM
COc1ccccc1CNCCCN1C(=O)c2ccc3c4c(ccc(c24)C1=O)C(=O)N(CCCOCCCCOCCCN)C3=O	1.53 µM	3.84 µM	1.3 µM	2.7 µM	1.21 µM	2.57 µM	0.625 µM	2.02 µM	0.597 µM	2.17 µM	0.802 µM	2.18 µM	1.88 µM	3.61 µM	2.35 µM	5.76 µM	0.272 µM	0.892 µM
N#C/C(=C1C=C(Br)/C(=N\O)C=C\1Cl)c1cccc2ccccc12		13.6 µM		21.5 µM		22.9 µM		17.7 µM		21.4 µM		6.47 µM		18 µM		20.3 µM		20.5 µM
COc1ccc(Nc2c3ccccc3nc3occc23)cc1	5.83 µM	> 51.5 µM	4.5 µM	21.8 µM	9.95 µM	> 80.6 µM	0.541 µM	12.2 µM	0.87 µM	28.1 µM	2.35 µM	> 100 µM	13.7 µM	> 63.4 µM	2.21 µM	14.9 µM	9.98 µM	28.9 µM
CN1C/C=C\CCOc2cccc(c2)-c2ccnc(n2)Nc2cccc(c2)C1	0.0568 µM	0.802 µM	0.0572 µM	0.156 µM	0.0332 µM	1.49 µM	0.0802 µM	0.63 µM	0.0398 µM	1.14 µM	0.0708 µM	0.334 µM	0.0369 µM		0.209 µM	2.16 µM	0.0722 µM	0.371 µM
c1ccc2c(c1)ccn2CCc1c[nH]c2ccccc12		> 10 µM				> 10 µM		> 10 µM		> 10 µM		> 10 µM		> 10 µM		> 10 µM		> 10 µM
COc1cc2c3c(n(CCCNC(=O)OCC4c5ccccc5-c5ccccc54)c(=O)c2cc1OC)-c1cc2c(cc1/C3=C\CCNC(=O)OCC1c3ccccc3-c3ccccc31)OCO2	> 16.2 µM	> 29.8 µM			> 11.8 µM	> 35 µM	> 50 µM	> 50 µM	> 50 µM	> 50 µM	> 11 µM	> 23.6 µM	> 19.6 µM	> 45 µM	> 25.6 µM	> 50 µM	> 50 µM	> 50 µM
CCCN1CCC(=O)N(CCC(F)(F)C(F)(F)C(F)(F)C(F)(F)C(F)(F)C(F)(F)F)C1=S		> 100 µM		> 100 µM		> 100 µM		> 100 µM		> 100 µM		> 100 µM		> 100 µM		> 100 µM		> 100 µM
COC(=O)[C@@H](C)CNS(=O)(=O)N(c1cc(C(F)(F)F)cc(C(F)(F)F)c1)C1CCN(Cc2ccc(F)cc2)CC1	11.2 µM	24 µM	12.8 µM	26.2 µM	14 µM	30 µM	3.01 µM	11.7 µM	7.13 µM	22.1 µM	14.9 µM	37 µM	15.8 µM	29.7 µM	15.5 µM	29 µM	16.4 µM	30.8 µM

Structure (SMILES)	GI50 [1]	TGI [1]	GI50 [2]	TGI [2]	GI50 [3]	TGI [3]	GI50 [4]	TGI [4]	GI50 [5]	TGI [5]	GI50 [6]	TGI [6]	GI50 [7]	TGI [7]	GI50 [8]	TGI [8]	GI50 [9]	TGI [9]
CCOC(=O)[C@@H](N)CCC(=O)N[C@@H](CSCc1ccccc1)C(=O)N[C@@H](C(=O)OCC)c1ccccc1	17.7 µM	33.7 µM	17.2 µM	38.8 µM	18.6 µM	34.8 µM	16.7 µM	32.2 µM	27.1 µM	> 69.8 µM	16.2 µM	32.4 µM	> 100 µM	> 100 µM	16.6 µM	31.5 µM	15.4 µM	29.7 µM
CN(C)C(=O)c1cc2cnc(Nc3ccc(-c4csc5c(=S)cc(N6CCOCC6)oc45)cc3)nc2n1C1CCCC1	0.63 µM	> 50 µM	0.103 µM	1.12 µM	0.377 µM	> 50 µM	0.932 µM	> 50 µM	0.585 µM	> 50 µM	1.3 µM	> 50 µM	0.485 µM	> 50 µM	2.28 µM	> 50 µM	1.24 µM	> 14.7 µM
Cn1c2c(c3ccccc31)CC1c3c(c4ccccc4n3C)CC21 (stereo not drawn)		> 100 µM				> 100 µM		> 100 µM		> 100 µM		> 100 µM		> 100 µM		> 100 µM		> 100 µM
NS(=O)(=O)c1ccc(NC2(C(=O)O)CCCC2)cc1		> 100 µM		> 100 µM		> 100 µM		> 100 µM		> 100 µM		> 100 µM		> 100 µM		> 100 µM		> 100 µM
CCCCCCCC/C=C/CCCCCCCC(=O)OC[C@H]1O[C@@H](n2ccc(N)nc2=O)C(F)(F)[C@@H]1O	< 0.0139 µM	2.56 µM	< 0.0218 µM	6.32 µM	< 0.01 µM	6.07 µM	17.5 µM	> 100 µM	< 0.0212 µM	> 33.4 µM	0.201 µM	> 100 µM	0.724 µM	> 100 µM	0.272 µM	> 100 µM	0.039 µM	> 100 µM
O=C1CCN2C(=O)CCN12		> 100 µM		> 100 µM		> 100 µM				> 100 µM		> 100 µM		> 100 µM		> 100 µM		> 100 µM
CCOC(=O)c1c(C)n(Cc2ccc(Cl)cc2Cl)c2c1c(CN(C)C)c(O)c1[nH]cnc12	20.1 µM	41.4 µM	20 µM	35 µM	15.4 µM	28.7 µM			15.3 µM	28.7 µM	17.1 µM	33.4 µM			27.3 µM	43.6 µM	20.5 µM	39.5 µM
CC1CC[C@]2(C(=O)O)CCC3(C)C(=CC(=O)C4[C@@]5(C)CCC(=O)C(C)(C)C5CC[C@]43C)[C@@H]2[C@H]1C (stereo partly drawn)		> 100 µM		> 100 µM		> 100 µM				> 100 µM		71.3 µM				> 100 µM		96.9 µM
CC(C)C(NC(=O)OC(C)(C)C)C(=O)N(C)C(Cc1ccccc1)C(=O)N(C)C(C(=O)O)C(C)C (stereo not drawn) (Boc-Val-[NMeF]-[NMeV]-OH; configuration not given here)		> 100 µM			23.1 µM and > 100 µM	71 µM and > 100 µM		> 100 µM		> 100 µM		> 100 µM				> 100 µM		> 100 µM
C=C1C(=O)O[C@H]2[C@H]1CC/C(COC(=O)C(=O)c1cn(Cc3ccccc3)c3ccccc13)=C\CC[C@@]1(C)O[C@@H]21	1.93 µM	4.03 µM	18.5 µM	35.2 µM			1.91 µM	4.26 µM	2.84 µM	12.2 µM	1.63 µM	3.42 µM	2.56 µM	6.82 µM	18.9 µM	56.7 µM	2.16 µM	5.21 µM
C[C@@]12CC=C3c4nc(Nc5cccc(O)c5)sc4CC[C@]3(C)[C@H]1CC[C@]1(C)C(=O)CC[C@@H]21	1.55 µM	4.91 µM	18 µM	75.8 µM	2.27 µM	5.45 µM			2.66 µM	7.25 µM	2.14 µM	4.64 µM	2.58 µM	7.26 µM	4.81 µM	28 µM	3.69 µM	> 100 µM
COc1cc(/C=C/c2cc(/C=C/c3ccc(O)c(OC)c3)n(C(=O)Nc3ccc(F)c(Cl)c3)n2)ccc1O	0.52 µM	1.71 µM	0.783 µM	2.1 µM	0.141 µM	7.49 µM	0.639 µM	3.71 µM					1.82 µM	6.87 µM	0.324 µM	1.43 µM	1.18 µM	5.32 µM
NP(=O)(Oc1c2occc2cc2ccc(=O)oc12)N(CCCl)CCCl (stereo not drawn)		> 100 µM		> 100 µM		> 100 µM		> 100 µM		> 100 µM		> 100 µM		> 100 µM				> 100 µM
Cc1cc(S(=O)(=O)Nc2nnc(-c3ccccc3)c(-c3ccccc3)n2)c(SCC(N)=O)cc1Cl	38.6 µM	> 100 µM	> 100 µM	> 100 µM	> 100 µM	> 100 µM			36.9 µM	> 100 µM	22.9 µM	50.9 µM	> 100 µM	> 100 µM	> 100 µM	> 100 µM	33.1 µM	97.6 µM
CC1(C)C(=O)N(CCCCCCN2C(=O)C(C)(C)c3ccccc32)c2ccccc21		40.8 µM		> 100 µM		97 µM		> 100 µM		> 100 µM				> 100 µM		> 100 µM		52 µM
O=C(N/N=C/c1ccccc1)c1c(-c2cccnc2)cnc2ccccc12		> 100 µM				> 100 µM		> 100 µM		> 100 µM		> 100 µM		> 100 µM		> 100 µM		> 100 µM
Clc1nc(Cl)c(Cl)c(-c2ccccc2)n1		7.45 µM				33.5 µM		78 µM		> 100 µM		3.2 µM		42.1 µM		25.8 µM		44.2 µM
